The subject of series [1] is Puccinia recondita f. Sp. Tritici. The experiment in a line: Puccinia recondita f. sp. tritici / wheat / leaf disc preventative (brown rust). It is filed as in vivo. The note with it: foliar, 200 ppm in the applied formulation, wheat leaf segments cv. Kanzler, inoculated 1 day after application, assessed 7 to 9 days after application, read-out: disease control compared to untreated control leaf disks. An outline of the steps: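 Preventative leaf-segment test: compound at 200 ppm applied by spray to Kanzler wheat, with spore inoculation following after one day. Disease control relative to untreated check read 7 to 9 days post-application, incubation at 19° C., 75% relative humidity, 12 h light/12 h dark.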

Series [2] deals with Glomerella lagenarium (Colletotrichum lagenarium). The experiment in a line: Glomerella lagenarium (Colletotrichum lagenarium) liquid culture / cucumber / preventative (anthracnose). It is filed as cell-based. The conditions noted are these: Colletotrichum orbiculare; 20 ppm in the applied formulation; liquid culture in PDB, 24° C.; 3 to 4 days after application; read-out: disease control compared to untreated control (inhibition of growth measured photometrically). The method, boiled down: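 Spore-based broth assay: conidia mixed into PDB meet compound from a DMSO solution in 96-well format, incubate at 24° C., then inhibition of growth is determined by photometry 3–4 days later relative to the untreated check.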

For series [3], the system named is Puccinia recondita f. Sp. Tritici. The experiment in a line: Puccinia recondita f. sp. tritici / wheat / leaf disc curative (brown rust). It is filed as in vivo. The note with it: foliar, 200 ppm in the applied formulation, wheat leaf segments cv. Kanzler, applied 1 day after inoculation, assessed 6 to 8 days after application, read-out: disease control compared to untreated control leaf disks. On the procedure: Leaf disks or leaf segments of various plant species are cut from plants grown in a greenhouse. The cut leaf disks or segments are placed in multiwell plates (24-well format) onto water agar. The leaf disks are sprayed with a test solution before (preventative) or after (curative) inoculation. Compounds to be tested are prepared as DMSO solutions (max. 10 mg/ml) which are diluted to the appropriate concentration with 0.025% Tween20 just before spraying. The inoculated leaf disks or segments are incubated under defined conditions (temperature, relative humidity, light, etc.) according to the respective test system. A single evaluation of disease level is carried out 3 to 14 days after inoculation, depending on the pathosystem. Percent disease control relative to the untreated check leaf disks or segments is then calculated.
Wheat leaf segments cv. Kanzler are placed on agar in multiwell plates (24-well format). The leaf segments are then inoculated with a spore suspension of the fungus. Plates were stored in darkness at 19° C. and 75% relative humidity. The formulated test compound diluted in water was applied 1 day after inoculation. The leaf segments were incubated at 19° C. and 75% relative humidity under a light regime of 12 hours light/12 hours darkness in a climate cabinet and the activity of a compound was assessed as percent disease control compared to untreated when an appropriate level of disease damage appears in untreated check leaf segments (6 to 8 days after application).
The following compounds at 200 ppm in the applied formulation give at least 80% disease control in this test when compared to untreated control leaf disks under the same conditions, which show extensive disease development.

Series [4] relates to Phakopsora pachyrhizi. The experiment in a line: Phakopsora pachyrhizi / soybean / leaf disc preventative (Asian soybean rust). It is filed as in vivo. The note with it: foliar, 200 ppm in the applied formulation, soybean leaf disks, inoculated one day after application, assessed 12 to 14 days after application, read-out: disease control compared to untreated control leaf disks. The method, boiled down:
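Read-out is percent disease control relative to untreated check discs, assessed once untreated discs show adequate disease, 12 to 14 days after application. Compounds, tested at 200 ppm in the applied formulation, are sprayed onto soybean leaf discs one day before inoculation with a spore suspension.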

Molecules are shown by their SMILES.

The source of these data is US20180319753A1, “MICROBIOCIDAL OXADIAZOLE DERIVATIVES” (SYNGENTA PARTICIPATIONS AG, priority 2015, published 2018).

The term inhibition denotes the share of the control response that was lost under treatment. The term melting point denotes the temperature of the solid-liquid transition. Molecule `Cc1cc(C)cc([S+]([O-])c2ccc(-c3noc(C(F)(F)F)n3)cc2)c1` (stereo not shown) [Compound 2.12, 3-[4-(3,5-dimethylphenyl)sulfinyl-phenyl]-5-(trifluoromethyl)-1,2,4-oxadiazole] came in with a melting point of 71 to 83 °C. For the same molecule, the pest or weed control at 200 ppm in series [1] is at least 80%. Also, the inhibition at 20 ppm in series [2] is at least 80%. The pest or weed control at 200 ppm in series [3] is at least 80%. In series [4], the pest or weed control at 200 ppm is at least 80%.
`[O-][S+](c1ccccc1)c1ccc(-c2noc(C(F)(F)F)n2)cn1` (stereo not shown) [Compound 2.10, 3-[6-(benzenesulfinyl)-3-pyridyl]-5-(trifluoromethyl)-1,2,4-oxadiazole] gave a melting point of 91 to 97 °C. Besides, the pest or weed control at 200 ppm in series [1] was at least 80%. For the same molecule, in series [2], the inhibition at 20 ppm is at least 80%. Further, in series [3], the pest or weed control at 200 ppm is at least 80%. Also, the pest or weed control at 200 ppm in series [4] was at least 80%.
`FC(F)(F)c1nc(-c2ccc(Sc3ccccc3)cc2)no1` [Compound 1.1, 3-(4-phenylsulfanylphenyl)-5-(trifluoromethyl)-1,2,4-oxadiazole]: the melting point was 59 to 62 °C. Moreover, the pest or weed control at 200 ppm in series [1] is at least 80%. The inhibition at 20 ppm in series [2] was at least 80%. In addition, the pest or weed control at 200 ppm in series [3] was at least 80%. In addition, the pest or weed control at 200 ppm in series [4] was at least 80%.
Turning to `COc1ccc(Sc2ccc(-c3noc(C(F)(F)F)n3)cc2)cc1` [Compound 1.2, 3-[4-(4-methoxyphenyl)sulfanylphenyl]-5-(trifluoromethyl)-1,2,4-oxadiazole], the melting point lay in the range of 55 to 60 °C. Besides, the pest or weed control at 200 ppm in series [1] is at least 80%. Also, in series [2], the inhibition at 20 ppm was at least 80%. Also, in series [3], the pest or weed control at 200 ppm was at least 80%. Further, the pest or weed control at 200 ppm in series [4] is at least 80%.
With `[O-][S+](Cc1ccc(-c2noc(C(F)(F)F)n2)cn1)c1ccccc1` (stereo not shown) [Compound 2.28, 3-[6-(benzenesulfinylmethyl)-3-pyridyl]-5-(trifluoromethyl)-1,2,4-oxadiazole], the melting point fell in the range of 116 to 120 °C. The pest or weed control at 200 ppm in series [1] is at least 80%. The inhibition at 20 ppm in series [2] is at least 80%. Besides, the pest or weed control at 200 ppm in series [3] is at least 80%. In addition, the pest or weed control at 200 ppm in series [4] is at least 80%.
As for `O=S(=O)(c1ccc(-c2noc(C(F)(F)F)n2)cc1)C1CCCC1` [Compound 3.16, 3-(4-cyclopentylsulfonylphenyl)-5-(trifluoromethyl)-1,2,4-oxadiazole], the melting point was in the range of 85 to 92 °C. The pest or weed control at 200 ppm in series [1] was at least 80%. Further, the inhibition at 20 ppm in series [2] is at least 80%. Further, the pest or weed control at 200 ppm in series [3] is at least 80%. In series [4], the pest or weed control at 200 ppm was at least 80%.
`[O-][S+](c1ccc(-c2noc(C(F)(F)F)n2)cc1)c1ccc(F)cc1F` (stereo not shown) [Compound 2.5, 3-[4-(2,4-difluorophenyl)sulfinyl-phenyl]-5-(trifluoromethyl)-1,2,4-oxadiazole]: the melting point was 118 to 123 °C. Further, in series [1], the pest or weed control at 200 ppm is at least 80%. Moreover, the inhibition at 20 ppm in series [2] was at least 80%. In series [3], the pest or weed control at 200 ppm is at least 80%. Also, the pest or weed control at 200 ppm in series [4] is at least 80%.
As to `[O-][S+](CC(F)(F)F)c1ccc(-c2noc(C(F)(F)F)n2)cc1` (stereo not shown) [Compound 2.6, 3-[4-(2,2,2-trifluoroethylsulfinyl)phenyl]-5-(trifluoromethyl)-1,2,4-oxadiazole], the melting point fell in the range of 93 to 100 °C. The pest or weed control at 200 ppm in series [1] is at least 80%. Besides, the inhibition at 20 ppm in series [2] is at least 80%. Moreover, in series [3], the pest or weed control at 200 ppm was at least 80%. For the same molecule, in series [4], the pest or weed control at 200 ppm is at least 80%.
